According to EP1178807B1, “USE OF ORG 33245 IN COMBINED INTERMITTENT HORMONE THERAPY AND CONTRACEPTION” (Akzo Nobel N.V., priority 1999, dated 2000):

Assays:
orosomucoid = assay: Binding to orosomucoid (as described in Philibert et al.); design: species or system human; conditions: for Binding affinity to orosomucoid (relative to RU 486): relative to RU 486 (100%)
Method: Of several anti-progestagens the binding to orosomucoid is determined as described in Philibert et al., Antihormones in Health and Disease (M.K. Agarwal, ed.), 1991, 19, 1-17.

[1] = Anti-McPhail test for anti-progestagenic activity; format: in vivo; conditions: Minimum Active Dose (MAD)
Method: Anti-progestagenic activity is determined by using an anti-McPhail test as known to the person skilled in the art and described, int.al., in Kloosterboer et al., Human Reproduction (1994), Volume 9, Supplement 1, pages 47-52.

Binding affinity to orosomucoid (relative to RU 486) (orosomucoid) | binding to human orosomucoid (orosomucoid; result in words, said to indicate a relatively long half life) | SMILES | minimal effective dose [1] [mg/kg]
64% |  | C=C1CCO[C@]12CC[C@H]1[C@@H]3CCC4=CC(=O)CCC4=C3[C@@H](c3ccc(OC)cc3)C[C@@]12C | 1
13,5% |  | C=C1CCO[C@]12CC[C@H]1[C@@H]3CCC4=CC(=O)CCC4=C3[C@@H](c3ccc(C(C)=O)cc3)C[C@@]12C | 8
222% | strong binding | C=C1CCO[C@]12CC[C@H]1[C@@H]3CCC4=CC(=O)CCC4=C3[C@@H](c3ccc(N(C)C)cc3)C[C@@]12C [Org 33245, (11β,17α)-17,23-epoxy-11-[(4-dimethylamino)phenyl]-19,24-dinorchola-4,9,20-trien-3-one] | 0.5
82% |  | C=C1CCO[C@]12CC[C@H]1[C@@H]3CCC4=CC(=O)CCC4=C3[C@@H](c3ccc(SC)cc3)C[C@@]12C | > 1
